BindingDB's records for doi:10.1016/j.chembiol.2008.02.015 (University of Dundee, 2008)
Numbered stars: 1 amine (or outer) side, 2 acyl side, 3 side chain; on linkers, the order of the positions; unused ones are H or OH. Square brackets hold non-standard residues; d marks the D form. Side chains are listed from the residue outwards. Peptide text beside a SMILES is read from it. NMeF = CN[C@@H](Cc1ccccc1)C(=O)O; CO = O=C([*:1])[*:2]

Tests used:
[1] = target: Chitotriosidase-1 (Homo sapiens, UniProt Q13231); assay: Inhibition Assay; settings: pH 5.5
[2] = target: Endochitinase B1 (Aspergillus fumigatus, UniProt Q873X9); assay: Inhibition Assay; settings: pH 5.5

Chitotriosidase-1, sequence (Q13231 whole entry): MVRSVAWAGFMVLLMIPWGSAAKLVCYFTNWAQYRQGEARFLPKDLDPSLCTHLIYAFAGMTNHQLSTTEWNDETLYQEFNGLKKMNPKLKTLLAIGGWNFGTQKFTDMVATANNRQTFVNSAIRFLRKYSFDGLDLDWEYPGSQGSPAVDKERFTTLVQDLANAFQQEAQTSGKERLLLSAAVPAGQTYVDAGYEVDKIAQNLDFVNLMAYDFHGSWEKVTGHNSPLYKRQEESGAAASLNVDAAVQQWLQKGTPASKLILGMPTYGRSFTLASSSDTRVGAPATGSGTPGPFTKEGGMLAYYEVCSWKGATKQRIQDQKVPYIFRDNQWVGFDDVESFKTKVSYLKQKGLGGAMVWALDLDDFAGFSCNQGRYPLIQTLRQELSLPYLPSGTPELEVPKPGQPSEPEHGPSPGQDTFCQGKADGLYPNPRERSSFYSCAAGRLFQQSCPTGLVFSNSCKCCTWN

| Compound | IC50 [1] [µM] | IC50 [2] [µM] |
| --- | --- | --- |
| CNC(=O)NC(=N)NCCC[C@H](NC(C)=O)C(=O)N(C)[C@@H](Cc1ccccc1)C(=O)O | 190 |  |
| CNC(=O)NC(=N)NCCC[C@@H]1NC(=O)[C@@H](C)NC(=O)C[C@@H](C(=O)O)NC(=O)C[C@@H](C(=O)O)NC(=O)[C@H](Cc2ccccc2)N(C)C1=O [(2R,5S,8S,11S,15S)-8-benzyl-2,7-dimethyl-5-[3-({[(methylcarbamoyl)amino]methanimidoyl}amino)propyl]-3,6,9,13,17-pentaoxo-1,4,7,10,14-pentaazacycloheptadecane-11,15-dicarboxylic acid] |  | 0.027 |
| [H]/N=C(\NC)NC(=O)NC [Argifin-Derived Fragments, 1] | 5800 | 500 |
| CNC(=O)NC(N)=NCCC[C@H](NC(C)=O)C(=O)NC [Monopeptide] | 1000 |  |
| CNC(=O)NC(N)=NCCC[C@H](NC(=O)[C@@H](C)NC(C)=O)C(=O)N(C)[C@@H](Cc1ccccc1)C(=O)N[C@@H](CC(=O)O)C(=O)O [Tetrapeptide] | 28 |  |
| CNC(=O)NC(N)=NCCC[C@H](NC(C)=O)C(=O)N(C)[C@@H](Cc1ccccc1)C(=O)N[C@@H](CC(=O)O)C(=O)O [Tripeptide] (Ac-Arg([CO-NHMe])-[NMeF]-Asp-OH) | 68 | 5.1 |
